According to ChEMBL document CHEMBL4376834, “Discovery of 4H-Chromen-4-one Derivatives as a New Class of Selective Rho Kinase (ROCK) Inhibitors, which Showed Potent Activity in ex Vivo Diabetic Retinopathy Models” (J Med Chem, 2019):

What was measured:
[1] = biological target: DNA-dependent protein kinase catalytic subunit (Homo sapiens, UniProt P78527); assay: Inhibition of recombinant full length human DNA-PK using GST-cMyc-p53 as substrate incubated for 40 mins by fluorescence assay
[2] = biological target: Tyrosine-protein kinase Lck (Homo sapiens, UniProt P06239); assay: Inhibition of recombinant full length activated human LCK using […] as substrate after 40 mins in presence of [gamma-33ATP] by radiometric scintillation counting analysis
Tyrosine-protein kinase Lck, sequence (P06239 whole entry, the tested form may be a part): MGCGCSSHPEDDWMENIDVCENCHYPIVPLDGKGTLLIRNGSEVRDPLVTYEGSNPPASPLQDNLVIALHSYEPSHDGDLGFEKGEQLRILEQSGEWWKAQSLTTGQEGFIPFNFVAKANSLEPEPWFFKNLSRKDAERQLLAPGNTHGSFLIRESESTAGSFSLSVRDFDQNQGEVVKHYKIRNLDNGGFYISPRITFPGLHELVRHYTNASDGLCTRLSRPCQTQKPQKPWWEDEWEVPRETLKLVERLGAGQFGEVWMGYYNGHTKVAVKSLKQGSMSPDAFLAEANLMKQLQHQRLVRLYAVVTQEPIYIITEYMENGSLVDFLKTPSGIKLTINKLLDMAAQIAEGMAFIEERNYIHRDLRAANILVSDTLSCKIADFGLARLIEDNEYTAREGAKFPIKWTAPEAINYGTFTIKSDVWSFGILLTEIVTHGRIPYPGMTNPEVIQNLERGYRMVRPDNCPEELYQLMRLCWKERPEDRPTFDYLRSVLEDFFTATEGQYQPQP

[3] = biological target: Rho-associated protein kinase 2 (Homo sapiens, UniProt O75116); assay: Inhibition of recombinant human ROCK2 (11 to 552 residues) using KEAKEKRQEQIAKR as substrate incubated for 40 mins in presence of [gamma-33P]ATP and 10 uM ATP by radiometric scintillation counting analysis
[4] = biological target: Serine/threonine-protein kinase Chk2 (Homo sapiens, UniProt O96017, I157T); assay: Inhibition of recombinant human CHK2 I157T mutant (5 to end residues) using KKKVSRSGLYRSP as substrate incubated for 40 mins in presence of [gamma-33ATP] by radiometric scintillation counting analysis
[5] = biological target: Serine/threonine-protein kinase tousled-like 2 (Homo sapiens, UniProt Q86UE8); assay: Inhibition of recombinant human TLK2 (387 to end residues) using casein as substrate incubated for 40 mins in presence of [gamma33P]ATP by radiometric scintillation counting analysis
CDK6/cyclin D3 = CDK6/cyclin D3 (Homo sapiens, UniProt Q00534); assay: Inhibition of recombinant full length human CDK6/cyclinD3 using histone H1 as substrate incubated for 40 mins in presence of [gamma-33ATP] by radiometric scintillation counting analysis; assay type: protein-complex assay
[6] = biological target: Dual specificity tyrosine-phosphorylation-regulated kinase 3 (Homo sapiens, UniProt O43781); assay: Inhibition of recombinant full length human DYRK3 using RRRFRPASPLRGPP as substrate after 40 mins in presence of [gamma-33ATP] by radiometric scintillation counting analysis
Dual specificity tyrosine-phosphorylation-regulated kinase 3, sequence (O43781 whole entry): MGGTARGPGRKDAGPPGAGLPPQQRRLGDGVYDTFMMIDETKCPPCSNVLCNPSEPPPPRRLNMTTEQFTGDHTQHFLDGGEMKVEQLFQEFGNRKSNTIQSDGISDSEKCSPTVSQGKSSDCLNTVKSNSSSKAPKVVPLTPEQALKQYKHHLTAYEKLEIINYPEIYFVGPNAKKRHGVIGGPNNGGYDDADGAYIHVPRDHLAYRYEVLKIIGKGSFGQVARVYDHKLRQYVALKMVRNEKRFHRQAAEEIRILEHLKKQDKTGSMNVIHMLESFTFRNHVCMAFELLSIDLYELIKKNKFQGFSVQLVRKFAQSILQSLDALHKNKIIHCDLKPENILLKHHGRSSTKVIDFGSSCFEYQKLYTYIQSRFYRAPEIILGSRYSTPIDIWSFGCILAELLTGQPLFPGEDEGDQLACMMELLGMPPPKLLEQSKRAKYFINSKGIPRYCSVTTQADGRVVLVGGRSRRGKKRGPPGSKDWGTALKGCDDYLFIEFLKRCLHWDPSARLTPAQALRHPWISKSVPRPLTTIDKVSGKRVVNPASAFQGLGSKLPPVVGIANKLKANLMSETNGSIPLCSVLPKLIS

[7] = biological target: Mitogen-activated protein kinase 13 (Homo sapiens, UniProt O15264); assay: Inhibition of recombinant human full length SAPK4 using myelin basic protein as substrate incubated for 40 mins in presence of [gamma33P]ATP by radiometric scintillation counting analysis
Mitogen-activated protein kinase 13, sequence (O15264 whole entry, the tested form may be a part): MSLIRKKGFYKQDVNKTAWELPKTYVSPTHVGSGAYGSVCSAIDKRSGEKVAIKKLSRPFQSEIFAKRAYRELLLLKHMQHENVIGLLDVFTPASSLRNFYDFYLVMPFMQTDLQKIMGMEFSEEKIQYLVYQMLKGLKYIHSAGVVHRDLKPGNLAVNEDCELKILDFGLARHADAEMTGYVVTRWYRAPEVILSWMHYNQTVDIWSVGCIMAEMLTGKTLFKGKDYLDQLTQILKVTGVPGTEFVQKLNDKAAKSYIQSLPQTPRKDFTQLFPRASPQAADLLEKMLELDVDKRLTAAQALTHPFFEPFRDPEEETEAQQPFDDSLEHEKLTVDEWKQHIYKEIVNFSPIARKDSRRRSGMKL

[8] = biological target: Fibroblast growth factor receptor 1 (Homo sapiens, UniProt P11362, V561M); assay: Inhibition of recombinant human FGFR1 V561M mutant (456 to 765 residues) using GGEEEEYFELVKK as substrate after 40 mins in presence of [gamma-33ATP] by radiometric scintillation counting analysis
Fibroblast growth factor receptor 1, sequence (P11362 22-822 V561M limits assumed): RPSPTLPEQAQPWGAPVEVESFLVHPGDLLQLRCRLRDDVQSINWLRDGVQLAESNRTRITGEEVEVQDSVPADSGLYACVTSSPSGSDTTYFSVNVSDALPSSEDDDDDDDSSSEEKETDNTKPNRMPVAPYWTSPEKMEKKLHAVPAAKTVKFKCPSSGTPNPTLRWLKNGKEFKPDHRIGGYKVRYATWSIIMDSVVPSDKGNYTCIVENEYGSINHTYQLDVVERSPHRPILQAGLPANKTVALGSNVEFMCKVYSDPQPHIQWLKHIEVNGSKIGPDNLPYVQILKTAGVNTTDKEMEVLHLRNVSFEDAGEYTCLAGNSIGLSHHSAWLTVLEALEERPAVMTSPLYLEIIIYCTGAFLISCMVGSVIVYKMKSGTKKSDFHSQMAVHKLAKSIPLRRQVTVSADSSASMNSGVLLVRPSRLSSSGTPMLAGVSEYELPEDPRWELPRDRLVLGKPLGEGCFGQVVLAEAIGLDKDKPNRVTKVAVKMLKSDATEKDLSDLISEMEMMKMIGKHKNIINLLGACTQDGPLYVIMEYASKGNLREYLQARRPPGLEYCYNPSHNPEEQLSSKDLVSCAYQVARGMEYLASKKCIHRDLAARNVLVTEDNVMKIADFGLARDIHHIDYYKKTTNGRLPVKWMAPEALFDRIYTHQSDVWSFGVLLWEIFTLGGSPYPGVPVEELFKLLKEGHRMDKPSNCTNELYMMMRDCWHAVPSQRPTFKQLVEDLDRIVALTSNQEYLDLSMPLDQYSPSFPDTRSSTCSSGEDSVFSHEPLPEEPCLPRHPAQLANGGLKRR

[9] = Protein binding in rat plasma at 1 uM incubated incubated for 5 hrs under shaking conditions by LC-MS analysis; assay type: ADME, cell-free; conditions: read-out: PPB (converted)
[10] = biological target: Tyrosine-protein kinase BTK (Homo sapiens, UniProt Q06187); assay: Inhibition of recombinant full length human BTK using KVEKIGEGTYGVV substrate incubated for 40 mins in presence of [gamma-33ATP] by radiometric scintillation counting analysis
[11] = biological target: Serine/threonine-protein kinase 10 (Homo sapiens, UniProt O94804); assay: Inhibition of recombinant human LOK (1 to 348 residues) using RLGRDKYKTLRQI as substrate after 40 mins in presence of [gamma-33ATP] by radiometric scintillation counting analysis
[12] = biological target: Homeodomain-interacting protein kinase 3 (Homo sapiens, UniProt Q9H422); assay: Inhibition of human recombinant HIPK3 (161 to 562 residues) using myelin basic protein as substrate after 40 mins by [gamma-33ATP] radiometric assay
CDK7/Cyclin H/MNAT1 = CDK7/Cyclin H/MNAT1 (Homo sapiens, UniProt P50613); assay: Inhibition of recombinant full length human CDK7/cyclinH/MAT1 using peptide substrate incubated for 40 mins in presence of [gamma-33ATP] by radiometric scintillation counting analysis; assay type: protein-complex assay
CDK7/Cyclin H/MNAT1, sequence (P51946 whole entry): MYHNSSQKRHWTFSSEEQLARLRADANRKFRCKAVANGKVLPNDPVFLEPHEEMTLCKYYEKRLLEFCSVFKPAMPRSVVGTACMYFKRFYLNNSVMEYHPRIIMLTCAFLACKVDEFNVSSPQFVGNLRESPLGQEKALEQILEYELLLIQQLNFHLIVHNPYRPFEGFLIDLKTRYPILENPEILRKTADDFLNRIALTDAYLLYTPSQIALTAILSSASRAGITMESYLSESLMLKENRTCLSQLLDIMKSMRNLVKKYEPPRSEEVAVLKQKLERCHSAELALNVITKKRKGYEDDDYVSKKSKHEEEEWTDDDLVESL
CDK7/Cyclin H/MNAT1, sequence (P50613 whole entry): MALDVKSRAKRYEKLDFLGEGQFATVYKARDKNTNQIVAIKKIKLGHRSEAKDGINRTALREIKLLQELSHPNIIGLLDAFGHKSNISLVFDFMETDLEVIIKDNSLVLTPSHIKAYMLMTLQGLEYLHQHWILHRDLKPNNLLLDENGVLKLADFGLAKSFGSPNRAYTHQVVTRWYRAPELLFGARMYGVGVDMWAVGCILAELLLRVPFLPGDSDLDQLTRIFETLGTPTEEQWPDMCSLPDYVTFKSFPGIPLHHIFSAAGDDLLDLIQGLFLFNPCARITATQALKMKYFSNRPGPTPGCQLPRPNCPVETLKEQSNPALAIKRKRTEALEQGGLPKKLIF
CDK7/Cyclin H/MNAT1, sequence (P51948 whole entry, further chain): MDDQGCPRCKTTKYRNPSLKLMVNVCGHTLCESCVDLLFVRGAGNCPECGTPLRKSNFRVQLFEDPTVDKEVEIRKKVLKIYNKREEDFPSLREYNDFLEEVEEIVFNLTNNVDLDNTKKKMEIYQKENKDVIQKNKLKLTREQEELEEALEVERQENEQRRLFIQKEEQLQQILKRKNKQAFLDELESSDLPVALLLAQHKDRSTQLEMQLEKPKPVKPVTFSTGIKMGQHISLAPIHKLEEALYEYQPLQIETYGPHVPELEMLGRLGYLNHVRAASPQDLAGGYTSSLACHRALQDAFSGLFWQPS

Ephrin type-A receptor 3 = Ephrin type-A receptor 3 (Homo sapiens, UniProt P29320); assay: Inhibition of recombinant human EphA3 (578 to end residues) using poly(Glu, Tyr) 4:1 as substrate measured after 40 mins in presence of [gamma33ATP] by radiometric scintillation counting analysis
[13] = biological target: Mitogen-activated protein kinase 8 (Homo sapiens, UniProt P45983); assay: Inhibition of recombinant full length human JNK1alpha1 using ATF2 as substrate after 40 mins by [gamma-33ATP] by radiometric scintillation counting analysis
LIM domain kinase 2 = LIM domain kinase 2 (Homo sapiens, UniProt P53671); assay: Inhibition of human LIMK2 in presence of 10 uM of ATP by radiometric analysis
Activin receptor type-1 = Activin receptor type-1 (Homo sapiens, UniProt Q04771); assay: Inhibition of human recombinant ALK2 (147 to end residues) using casein as substrate incubated for 40 mins in presence of [gamma-33P]ATP by radiometric scintillation counting analysis
Activin receptor type-1, sequence (Q04771 whole entry, the tested form may be a part): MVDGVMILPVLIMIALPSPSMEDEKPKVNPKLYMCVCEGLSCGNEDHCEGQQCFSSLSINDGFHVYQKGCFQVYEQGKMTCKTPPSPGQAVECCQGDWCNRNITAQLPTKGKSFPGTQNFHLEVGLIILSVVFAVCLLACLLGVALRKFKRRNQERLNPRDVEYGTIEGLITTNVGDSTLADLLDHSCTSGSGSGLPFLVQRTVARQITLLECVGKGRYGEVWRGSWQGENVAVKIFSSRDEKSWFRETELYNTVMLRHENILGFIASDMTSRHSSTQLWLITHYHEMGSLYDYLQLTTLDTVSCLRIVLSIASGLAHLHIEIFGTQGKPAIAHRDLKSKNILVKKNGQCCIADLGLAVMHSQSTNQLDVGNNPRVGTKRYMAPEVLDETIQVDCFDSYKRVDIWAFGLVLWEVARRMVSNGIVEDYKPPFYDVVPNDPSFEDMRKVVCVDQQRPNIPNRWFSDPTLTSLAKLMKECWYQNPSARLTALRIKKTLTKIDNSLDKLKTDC

[14] = biological target: Receptor-interacting serine/threonine-protein kinase 1 (Homo sapiens, UniProt Q13546); assay: Inhibition of recombinant human RIPK1 (8 to 322 residues) using myelin basic protein as substrate incubated for 40 mins in presence of [gamma33P]ATP by radiometric scintillation counting analysis
[15] = biological target: Serine/threonine-protein kinase pim-1 (Homo sapiens, UniProt P11309); assay: Inhibition of recombinant full length human Pim1 using KKRNRTLTV as substrate incubated for 40 mins in presence of [gamma33P]ATP by radiometric scintillation counting analysis
Serine/threonine-protein kinase pim-1, sequence (P11309 whole entry, the tested form may be a part): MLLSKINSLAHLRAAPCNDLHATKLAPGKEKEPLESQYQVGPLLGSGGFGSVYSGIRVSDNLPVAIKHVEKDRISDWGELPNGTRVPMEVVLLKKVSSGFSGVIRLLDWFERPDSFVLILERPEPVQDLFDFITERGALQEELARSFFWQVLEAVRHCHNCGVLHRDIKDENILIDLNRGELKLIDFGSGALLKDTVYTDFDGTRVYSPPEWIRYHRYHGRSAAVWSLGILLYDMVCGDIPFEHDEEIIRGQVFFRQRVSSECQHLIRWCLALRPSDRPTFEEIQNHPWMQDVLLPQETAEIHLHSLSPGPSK

[16] = biological target: Mitogen-activated protein kinase kinase kinase kinase 3 (Homo sapiens, UniProt Q8IVH8); assay: Inhibition of recombinant human MAP4K3 (1 to 291 residues) using RLGRDKYKTLRQI as substrate incubated for 40 mins in presence of [gamma-33ATP by radiometric scintillation counting analysis
Mitogen-activated protein kinase kinase kinase kinase 3, sequence (Q8IVH8 whole entry, the tested form may be a part): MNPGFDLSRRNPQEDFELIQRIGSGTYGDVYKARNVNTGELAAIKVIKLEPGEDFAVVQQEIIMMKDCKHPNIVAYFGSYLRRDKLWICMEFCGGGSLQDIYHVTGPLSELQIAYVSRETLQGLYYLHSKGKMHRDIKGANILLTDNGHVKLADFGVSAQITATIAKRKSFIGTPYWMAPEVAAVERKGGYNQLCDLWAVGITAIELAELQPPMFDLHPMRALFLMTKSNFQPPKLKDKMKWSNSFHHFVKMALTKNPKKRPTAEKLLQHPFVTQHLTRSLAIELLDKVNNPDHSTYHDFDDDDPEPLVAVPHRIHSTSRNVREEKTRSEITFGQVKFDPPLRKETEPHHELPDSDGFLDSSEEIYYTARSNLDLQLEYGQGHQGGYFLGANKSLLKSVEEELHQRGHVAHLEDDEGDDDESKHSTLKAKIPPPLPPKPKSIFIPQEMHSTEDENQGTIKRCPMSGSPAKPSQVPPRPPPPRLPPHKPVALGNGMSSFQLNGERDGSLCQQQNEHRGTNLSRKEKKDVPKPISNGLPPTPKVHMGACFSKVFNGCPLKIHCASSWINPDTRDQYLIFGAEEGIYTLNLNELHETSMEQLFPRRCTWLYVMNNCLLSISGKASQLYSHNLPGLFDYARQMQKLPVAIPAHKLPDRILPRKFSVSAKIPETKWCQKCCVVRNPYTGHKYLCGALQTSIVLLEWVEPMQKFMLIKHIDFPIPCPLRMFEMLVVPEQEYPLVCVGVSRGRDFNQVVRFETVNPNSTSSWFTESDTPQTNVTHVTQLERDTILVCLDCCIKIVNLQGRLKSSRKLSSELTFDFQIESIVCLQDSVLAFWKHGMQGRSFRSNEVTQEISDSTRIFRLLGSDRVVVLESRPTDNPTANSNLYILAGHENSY

[17] = biological target: Tyrosine-protein kinase ITK/TSK (Homo sapiens, UniProt Q08881); assay: Inhibition of human recombinant Itk (352 to 617 residues) using myelin basic protein as substrate after 40 mins by [gamma-33ATP] by radiometric scintillation counting analysis
[18] = biological target: cAMP-dependent protein kinase catalytic subunit beta (Homo sapiens, UniProt P22694); assay: Inhibition of recombinant full length human PKAcbeta using KEAKEKRQEQIAKR as substrate incubated for 40 mins in presence of [gamma33P]ATP by radiometric scintillation counting analysis
[19] = biological target: Dual specificity mitogen-activated protein kinase kinase 6 (Homo sapiens, UniProt P52564); assay: Inhibition of recombinant human MKK6 (4 to end residues) using SAPK2 as substrate incubated for 40 mins by radiometric scintillation counting analysis
[20] = biological target: Serine/threonine-protein kinase B-raf (Homo sapiens, UniProt P15056); assay: Inhibition of recombinant full length human B-Raf (416 to end residues) using myelin basic protein substrate incubated for 40 mins in presence of [gamma-33ATP] by radiometric scintillation counting analysis
[21] = biological target: Homeodomain-interacting protein kinase 4 (Homo sapiens, UniProt Q8NE63); assay: Inhibition of human recombinant full length HIPK4 using RRRFRPASPLRGP as substrate after 40 mins by [gamma-33ATP] radiometric assay
[22] = biological target: Tyrosine-protein kinase HCK (Homo sapiens, UniProt P08631); assay: Inhibition of human HCK recombinant (230 to 497 residues) using […] as substrate after 40 mins by [gamma-33ATP] radiometric assay

With CN(C)c1ccc(C(=O)Nc2cccc(NC(=O)COc3ccc4c(=O)ccoc4c3)c2)cc1 the IC50 [1] was > 10 µM, the IC50 [2] was > 10 µM and the IC50 [3] was 0.003 µM. For the same compound, the IC50 [4] was > 10 µM, the IC50 [5] was > 10 µM and the IC50 (CDK6/cyclin D3) was > 10 µM. For the same compound, the IC50 [6] was > 10 µM, the IC50 [7] was > 10 µM and the IC50 [8] was > 10 µM. The fraction unbound at 5 h, 1 µM [9] was 0.004, the IC50 [10] was > 10 µM and the IC50 [11] was > 10 µM. For the same compound, the IC50 [12] was > 10 µM, the IC50 (CDK7/Cyclin H/MNAT1) was > 10 µM and the IC50 (Ephrin type-A receptor 3) was > 10 µM. The IC50 [13] was > 10 µM, the IC50 (LIM domain kinase 2) was 0.046 µM and the IC50 (Activin receptor type-1) was > 10 µM. For the same compound, the IC50 [14] was > 10 µM, the IC50 [15] was > 10 µM and the IC50 [16] was > 10 µM. The IC50 [17] was > 10 µM, the IC50 [18] was > 10 µM and the IC50 [19] was > 10 µM. The IC50 [20] was > 10 µM, the IC50 [21] was > 10 µM and the IC50 [22] was > 10 µM.
